How the values were obtained:
[1] = xn = mol fraction of the nth substance listed; settings: 101 kPa, Liquid; for speed of sound: Pulse-echo method
[2] = refractive index (Na D-line) (dimensionless); xn = mol fraction of the nth substance listed; settings: 101 kPa, Liquid

CCCCCCC(C)O (stereo unspecified) [2-octanol] + Clc1cccc(Cl)c1
Settings | mass density, [1] [kg/m3] | refractive index, [2] | speed of sound, [1] [m/s] | viscosity, [1] [mPa·s]
298.15 K, x2 = 0 | – | – | – | 6.566
298.15 K, x2 = 0.0694 | 840.61 | 1.4312 | 1300.1 | 5.146
298.15 K, x2 = 0.1166 | 857.54 | 1.4366 | 1295.8 | 4.43
298.15 K, x2 = 0.1823 | 881.65 | 1.4436 | 1290 | 3.7
298.15 K, x2 = 0.2395 | 903.41 | 1.4494 | 1285.1 | 3.231
298.15 K, x2 = 0.3143 | 932.89 | 1.4567 | 1278.7 | 2.754
298.15 K, x2 = 0.379 | 959.33 | 1.4631 | 1273.3 | 2.429
298.15 K, x2 = 0.4488 | 988.41 | 1.4698 | 1268 | 2.138
298.15 K, x2 = 0.5084 | 1014.16 | 1.4758 | 1263.7 | 1.934
298.15 K, x2 = 0.582 | 1047.42 | 1.4838 | 1258.9 | 1.715
298.15 K, x2 = 0.6659 | 1086.85 | 1.4939 | 1254.6 | 1.505
298.15 K, x2 = 0.7208 | 1114.21 | 1.5009 | 1252.4 | 1.394
298.15 K, x2 = 0.7847 | 1147.67 | 1.5099 | 1250.7 | 1.279
298.15 K, x2 = 0.8663 | 1194.04 | 1.5224 | 1250.4 | 1.151
298.15 K, x2 = 0.9434 | 1243.52 | 1.5349 | 1251.8 | 1.065
303.15 K, x2 = 0 | – | – | – | 5.178
303.15 K, x2 = 0.0694 | 836.24 | 1.4293 | 1282.4 | 4.351
303.15 K, x2 = 0.1166 | 852.87 | 1.4348 | 1278.1 | 3.821
303.15 K, x2 = 0.1823 | 876.71 | 1.4418 | 1272.3 | 3.246
303.15 K, x2 = 0.2395 | 898.21 | 1.4475 | 1267.5 | 2.847
303.15 K, x2 = 0.3143 | 927.45 | 1.4546 | 1261.2 | 2.412
303.15 K, x2 = 0.379 | 953.45 | 1.4608 | 1256.1 | 2.113
303.15 K, x2 = 0.4488 | 982.39 | 1.4677 | 1251 | 1.857
303.15 K, x2 = 0.5084 | 1007.74 | 1.4738 | 1246.9 | 1.679
303.15 K, x2 = 0.582 | 1040.69 | 1.4819 | 1242.3 | 1.51
303.15 K, x2 = 0.6659 | 1079.96 | 1.4921 | 1238.3 | 1.378
303.15 K, x2 = 0.7208 | 1107.42 | 1.4994 | 1236.2 | 1.302
303.15 K, x2 = 0.7847 | 1141.2 | 1.5084 | 1234.6 | 1.226
303.15 K, x2 = 0.8663 | 1187.75 | 1.5209 | 1234.2 | 1.14
303.15 K, x2 = 0.9434 | 1236.9 | 1.5327 | 1235.6 | 1.042
308.15 K, x2 = 0 | – | – | – | 4.162
308.15 K, x2 = 0.0694 | 832.14 | 1.4273 | 1264.6 | 3.517
308.15 K, x2 = 0.1166 | 848.59 | 1.4327 | 1260.1 | 3.17
308.15 K, x2 = 0.1823 | 871.91 | 1.4397 | 1254.2 | 2.759
308.15 K, x2 = 0.2395 | 892.9 | 1.4455 | 1249.6 | 2.463
308.15 K, x2 = 0.3143 | 920.82 | 1.4527 | 1243.5 | 2.119
308.15 K, x2 = 0.379 | 945.97 | 1.4589 | 1238.9 | 1.892
308.15 K, x2 = 0.4488 | 974.25 | 1.4658 | 1233.9 | 1.673
308.15 K, x2 = 0.5084 | 999.57 | 1.4718 | 1230.2 | 1.512
308.15 K, x2 = 0.582 | 1032.22 | 1.4798 | 1226 | 1.358
308.15 K, x2 = 0.6659 | 1071.96 | 1.4898 | 1221.9 | 1.207
308.15 K, x2 = 0.7208 | 1099.76 | 1.4969 | 1219.4 | 1.132
308.15 K, x2 = 0.7847 | 1134.17 | 1.5057 | 1217.9 | 1.05
308.15 K, x2 = 0.8663 | 1181.99 | 1.518 | 1217.3 | 0.956
308.15 K, x2 = 0.9434 | 1231.4 | 1.5298 | 1219.3 | 0.898

Reference: the NIST ThermoML archive (doi:10.1007/s10765-011-1087-7)
